Reference: patent publication US8691851B2, “Lanthanide metal complexes useful in treating cancer” (National University of Singapore, priority 2009, dated 2014)
Read-outs that look alike come from different tables or passages of the source.

Experiments:
[1] = test system: Bax, cytochrome C; conditions: 5 μM and 10 μM
[2] = test system: PPARγ; conditions: SHEP1 cells, 0 to 5 uM, 18 hours
Procedure: To determine if C19H24N3O5S5Pr binds to PPARγ, neuroblastoma SHEP1 cells were transiently co-transfected with either empty vector or a DNA-binding mutant of PPARγ, 3×PPPRE luciferase plasmid and renilla plasmid for transfection efficiency. Forty eight hours following transfection, the cells were exposed to increased concentration (0 to 5 uM) of C19H24N3O5S5Pr for 18 hours. PPARγ activity was calculated as luciferase RLU/renilla/μg total protein.

[3] = target: T1, PPARγ (Homo sapiens, UniProt P37231); experiment: 3×PPRE luciferase reporter, PPARγ activation in breast cancer cells; type: cell-based; set-up: endogenous in cells; host or cells: MDA-MB-231, T47D (breast cancer); conditions: 0 to 20 μM, 18 hours
T1 sequence (P37231 1-505): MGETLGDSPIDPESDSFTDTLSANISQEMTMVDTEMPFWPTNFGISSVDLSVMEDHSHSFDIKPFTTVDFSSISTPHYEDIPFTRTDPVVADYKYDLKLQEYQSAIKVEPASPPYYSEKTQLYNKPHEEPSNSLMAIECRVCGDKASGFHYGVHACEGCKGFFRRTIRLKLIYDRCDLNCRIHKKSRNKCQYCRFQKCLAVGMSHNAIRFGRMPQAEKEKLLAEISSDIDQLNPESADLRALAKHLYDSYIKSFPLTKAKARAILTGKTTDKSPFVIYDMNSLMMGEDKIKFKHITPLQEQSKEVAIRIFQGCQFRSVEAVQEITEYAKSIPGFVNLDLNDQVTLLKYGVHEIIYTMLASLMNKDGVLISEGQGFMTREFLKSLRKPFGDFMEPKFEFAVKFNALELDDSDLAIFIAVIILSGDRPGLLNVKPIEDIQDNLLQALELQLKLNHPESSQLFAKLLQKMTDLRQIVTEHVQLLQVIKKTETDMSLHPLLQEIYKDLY
Text: To determine if C19H24N3O5S5Pr activation of PPARγ is dependent on expression of PPARγ in breast cancer cells, breast cancer cells MDA-MB-231 and T47D were transiently co-transfected with a 3×PPRE luciferase plasmid and renilla plasmid for transfection efficiency.

[4] = target: T1, PPARγ; experiment: pPPREx3-TKLuc reporter with PPAR-γ short-hairpin RNA silencing (Method 1); type: cell-based; set-up: endogenous in cells; host or cells: SHSY5Y, SHEP1 / SHEP-1 (neuroblastoma); MDA-MB-231, T47D (breast cancer); conditions: SHEP-1 cells, 5 uM and 10 uM, 18 hr
Text: In Method 1, a reporter plasmid containing three copies of the PPAR response element (pPPREx3-TKLuc) as illustrated in FIG. 19A and as previously described in Kim et al, Toxicological Sciences, 85, (2005), pp. 585-593, was transfected into SHEP-1 cancer cells. This system directly measures activation of endogenous PPAR via transcriptional activation of the luciferase reporter gene as a result of PPARγ binding to the PPAR response element (PPRE). To determine whether PPARγ receptor is activated by C19H24N3O5S5Pr, the SHEP-1 cancer cells was transiently transfected with either short-hairpin RNA plasmid targeting PPAR-γ protein or short hairpin RNA negative control. The cells were exposed to varying doses (5 uM, 10 uM) of C19H24N3O5S5Pr for 18 hr.

[5] = test system: SHEP1 and SHSY5Y neuroblastoma cells; conditions: 24 hours
Procedure: (§1) To detect breast cancer cell death via cell viability assay, the mitochondrial activity, as an index of cell viability, was measured using the MTT method (Mosmann, T. J Immunol Methods, 1983; 65: 55-63). Briefly, cells were treated in triplicates in 96-well plate. After completion of the experimental period, 20 μl of MTT reagent (5 mg/ml) was added per well of culture (containing 100 μl treatment media). The reaction was allowed to proceed for 4 to 6 h at 37° C. SDS (10%) was then added (200 μl/well) overnight and the absorption at 595 nm measured.

[6] = test system: MDA-MB-231 breast cancer cells; conditions: high PPARγ expressing cells, 24 hours
Procedure: as §1

[7] = test system: T47D breast cancer cells; conditions: low PPARγ expressing cells, 24 hours
Procedure: as §1

[8] = test system: SHEP1 cells; conditions: mPPARg PCMX versus empty vector, 0 to 5 uM
Procedure: as §1

[9] = target: T1, PPARγ; type: cell-based; set-up: endogenous in cells; host or cells: SHSY5Y, SHEP1 / SHEP-1 (neuroblastoma); conditions: 18 hours
Procedure: To determine if C19H24N3O5S5Pr activates PPARγ, SHSY5Y and SHEP1 neuroblastoma cells were transiently co-transfected with a 3×PPRE luciferase plasmid and renilla plasmid for transfection efficiency. Forty eight hours following transfection, the cells were exposed to increased concentrations (0 to 10 μM) of 15d-PGJ2 and C19H24N3O5S5Pr for 18 hours. The fold increase in luciferase activity correlates with the PPARγ activity of the cell. PPARγ activity is determined by calculating the RLU/renilla/μg total protein.
To assess if C19H24N3O5S5Pr activation of PPARγ is dependent on expression of PPARγ neuroblastoma cells, neuroblastoma cells SHEP1 and SHSY5Y were transiently co-transfected with a 3×PPRE luciferase plasmid and renilla plasmid for transfection efficiency. Forty eight hours following transfection, cells were exposed to increased concentrations (0 to 20 μM) of C19H24N3O5S5Pr for 18 hours. PPARγ activity was calculated as luciferase RLU/renilla/μg total protein.

[10] = test system: caspases; conditions: cancer cells
[11] = test system: SHEP-1 and MDA-MB-231 cancer cells; experiment: Morphological changes of cancer cells; type: cell-based; conditions: SHEP-1 5 μM, MDA-MB-231 10 μM, compound alone

CS(C)=O.CS(C)=O.[O-][n+]1ccccc1[S-].[O-][n+]1ccccc1[S-].[O-][n+]1ccccc1[S-].[Pr+3] [C19H24N3O5S5Pr, praseodymium (2-mercaptopyridine N-oxide)(dimethylsulfoxide)]
Bax translocation ([1]; SHEP-1 cells, 18 hr and 24 hr): causes Bax translocation to the mitochondrial fraction | cytochrome C release ([1]; SHEP-1 cells, 18 hr and 24 hr): cytochrome C release into the cytosol | Bax translocation ([1]; SHSY5Y cells, 24 hr): causes Bax translocation to the mitochondrial fraction | cytochrome C release ([1]; SHSY5Y cells, 24 hr): cytochrome C release into the cytosol | PPARγ activation on overexpression of DNA-binding mutant PPARγ [2]: significantly reduced the ability of C19H24N3O5S5Pr to activate PPARγ | PPARγ activation, MDA-MB-231 versus T47D cells [3]: activates PPARγ better in MDA-MB-231 cells, than in T47D cells | luciferase activity upon silencing of PPARγ protein [4]: luciferase activity was abrogated | cell viability (MTT), SHEP1 versus SHSY5Y cells [5]: has a greater growth of SHEP1 cells compared to SHSY5Y cells | cell viability (MTT) [6]: inhibits growth | cell viability (MTT) [7]: remained viable | cell viability on overexpression of wild type PPARγ [8]: greater decrease in cell viability | PPARγ activation, SHEP1 versus SHSY5Y cells ([9]; 0 to 20 μM): activates PPARγ better in SHEP1 cells, than in SHSY5Y cells | PPARγ activation (luciferase RLU/renilla/μg total protein) ([9]; SHSY5Y and SHEP1 cells in 10% serum, 0 to 10 μM): significant activation of PPARγ | caspase activation [10]: does not activate caspases | cell morphology [11]: rounded up and also lower in cell density
